Earlier results on one compound are cited in patent US20060127456A1, “Novel fiber-based consumer products based on new concepts of fiber modification” (priority 2004, published 2006).

With `II` [Iodine], the increase of solubility (in 1% aqueous solution of PVP, versus water) is recorded as around 17 fold. In addition, the solubility in water result (water) was “very sparingly soluble”.
